# Assay results reported in ChEMBL document CHEMBL1201862, “PubChem BioAssay data set” (2004).
# Active and inactive are the calls of the source.
# Columns and labels:
# [1] = Luminescence Cell-Based Dose Response to Identify Activators of 5'UTR Stem-Loop Driven Prion Protein mRNA Translation in H4-C Neuroglioblastoma Cells. [Related pubchem assays: 1829 (Project Summary), 1814 (Primary HTS)]; assay type: functional
# [2] = Luminescence Cell-Based Dose Confirmation HTS to Identify Activators of 5'UTR Stem-Loop Driven Alpha-Synuclein mRNA Translation in H4 Neuroglioblastoma Cells. [Related pubchem assays: 1829 (Project Summary), 1814 (Primary HTS)]; assay type: functional
# [3] = Luminescence Cell-Based Dose Response HTS to Identify Activators of Luciferase Translation or Activity in H4 […] Cells. [Related pubchem assays: 1829 (Project Summary), 1814 (Primary HTS)]; assay type: functional
# H4 = assay: Luminescence Cell-Based Dose Response HTS to Identify Activators of 5'UTR Stem-Loop Driven Prion Protein mRNA Translation in H4 Neuroglioblastoma Cells. [Related pubchem assays: 1829 (Project Summary), 1814 (Primary HTS)]; assay type: functional; conditions: Homo sapiens
# [4] = Luminescence Cell-Based Dose Response to Identify Activators of Luciferase Translation or Activity in H4-C Neuroglioblastoma Cells. [Related pubchem assays: 1829 (Project Summary), 1814 (Primary HTS)]; assay type: functional
# [5] = Luminescence Cell-Based Dose Confirmation to Identify Activators of 5'UTR Stem-Loop Driven Alpha-Synuclein mRNA Translation in H4 Neuroglioblastoma Cells. [Related pubchem assays: 1829 (Project Summary), 1814 (Primary HTS)]; assay type: functional
# HeLa = assay: HeLa cell cytotoxicity, dose response, cytotoxicity control for MITF activator project, CellTiter-Glo luminescence, cherry-pick samples (AID 540259); assay type: functional, cell-based; conditions: Homo sapiens
# [6] = inhibitors of intracellular T. cruzi replication, confirmation, NIH3T3 host cells, beta-gal luminescence (AID 2044); assay type: functional, cell-based;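 also: intracellular parasites grown in NIH/3T3 mouse fibroblasts as host cells; luminescent beta-galactosidase reporter signal from transgenic T. cruzi replicating inside host cells; inhibitors lower the luminescence signal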
# [7] = cytotoxicity toward NIH3T3 fibroblasts, dose response, counter-screen, cell-based, ATP luminescence, mouse fibroblasts (AID 2010); assay type: functional;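 also: cells exposed to compound for about 90 hours before reading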
# Fatty acid synthase [8] = target: T1, Fatty acid synthase (Homo sapiens, UniProt P49327); assay: FAS thioesterase domain inhibitors, dose response, biochemical, endpoint fluorescence intensity, uHTS hits (AID 624327); assay type: functional;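 also: fluorescence from hydrolysis of an O-methyl fluorescein acyl ester substrate by the enzyme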
# Fatty acid synthase [9] = target: T1, Fatty acid synthase; assay: FAS thioesterase domain inhibitors, dose response, biochemical, kinetic fluorescence intensity (AID 624326); assay type: functional;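 also: rate of fluorescence rise from hydrolysis of a fluorogenic O-methyl fluorescein ester substrate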
# cells [10] = assay: cells
# [11] = target: Mitogen-activated protein kinase 10 (Homo sapiens, UniProt P53779); assay: Dose response biochemical screening assay for inhibitors of c-Jun N-Terminal Kinase 3 (JNK3). [Related pubchem assays: 746 ]
# INS1 = assay: beta cell apoptosis inhibitors, cytokine rescue, dose response, luminescence, retest (AID 449756); assay type: functional, cell-based; conditions: Rattus norvegicus;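 also: cell death triggered by IL-1 beta plus TNF-alpha plus IFN-gamma mixture; protective hits raise ATP signal compared with cytokine alone wells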
# [12] = cytotoxicity in HEK-293T cells, dose response, cytotoxicity control for TCR NF-kB inhibitor project, luminescence, T-cell screen hits (AID 489026); assay type: functional, cell-based;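 also: cells exposed to compound about 14 hours before the viability readout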
# [13] = Shn3 3'UTR reporter inhibitors, dose response, cell-based, Clone20 osteoblasts, firefly luciferase, cherry-picked (AID 624132); assay type: functional;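 also: firefly luciferase luminescence from reporter carrying the Shn3 3'UTR in osteoblasts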
# [14] = HepG2 cell cytotoxicity, dose response, cytotoxicity control for Shn3 inhibitor project, CellTiter-Glo, cherry-picked (AID 624134); assay type: functional, cell-based
# [15] = control 3'UTR Renilla luciferase suppression, dose response, counter-screen for Shn3 inhibitor project, cell-based, Clone20-Shn3RL, cherry-picked (AID 624133); assay type: functional
# [16] = target: T2, COUP transcription factor 2 (Homo sapiens, UniProt P24468); assay: Luminescence-based cell-based high throughput dose response assay to identify inhibitors of COUP-TFII (NR2F2).; assay type: functional;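 also: HEK293 cells transiently cotransfected with COUP-TFII expression vector and reporter; luciferase reporter luminescence driven by COUP-TFII from the pX2-168 reporter plasmid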
# T2 sequence (P24468 whole entry): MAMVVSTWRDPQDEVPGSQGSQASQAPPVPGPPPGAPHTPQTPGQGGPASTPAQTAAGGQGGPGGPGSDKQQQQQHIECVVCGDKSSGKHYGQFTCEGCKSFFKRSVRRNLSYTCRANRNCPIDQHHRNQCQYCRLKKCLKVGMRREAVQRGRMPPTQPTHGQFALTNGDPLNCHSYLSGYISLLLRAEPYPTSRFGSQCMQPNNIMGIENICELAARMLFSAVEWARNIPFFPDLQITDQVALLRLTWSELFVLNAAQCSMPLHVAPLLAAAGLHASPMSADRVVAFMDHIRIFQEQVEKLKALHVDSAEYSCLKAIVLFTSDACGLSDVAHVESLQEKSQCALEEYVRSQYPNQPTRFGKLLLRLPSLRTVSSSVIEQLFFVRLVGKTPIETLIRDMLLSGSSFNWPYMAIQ
# [17] = target: NAD-dependent protein deacylase sirtuin-5, mitochondrial (Homo sapiens, UniProt Q9NXA8); assay: SIRT5 desuccinylase inhibitors, dose response, biochemical, fluorescence imaging, cherry-pick, set 5 (AID 720591);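 also: desuccinylation of succinyl peptide AMC substrate read as fluorescence after trypsin release; potency of inhibitors that lower fluorescence and may act on trypsin instead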
# [18] = target: Disintegrin and metalloproteinase domain-containing protein 17 (Homo sapiens, UniProt P78536); assay: exosite inhibitors of ADAM17, dose response, biochemical (AID 743260)
# [19] = ADAM10 protease inhibitors, dose response, selectivity assay for ADAM17 exosite inhibitor project, biochemical, FRET peptide substrate, recombinant human ADAM10 (AID 743259);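 also: ADAM10 enzyme cleaving a FRET peptide substrate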
# [20] = target: Peroxisome proliferator-activated receptor gamma/Nuclear receptor coactivator 1 (Homo sapiens, UniProt P37231); assay: TR-FRET dose response biochemical High Throughput Screening assay for agonists of the steroid receptor coactivator 1 (SRC-1) recruitment by the peroxisome proliferator-activated receptor gamma (PPAR gamma): non-selective agonists. [Related pubchem assays (depositor defined):AID1300, AID1808, AID504735, AID631]; assay type: protein assay
# [21] = target: Peroxisome proliferator-activated receptor gamma/Nuclear receptor coactivator 3 (Homo sapiens, UniProt P37231); assay: TR-FRET dose response biochemical High Throughput Screening assay for agonists of the steroid receptor coactivator 3 (SRC-3) recruitment by the peroxisome proliferator-activated receptor gamma (PPAR gamma): non-selective agonists. [Related pubchem assays: 1301 (Confirmation screen.), 1048 (Primary screen.)]; assay type: functional
# [22] = target: Peroxisome proliferator-activated receptor gamma/Nuclear receptor coactivator 2 (Homo sapiens, UniProt P37231); assay: TR-FRET dose response biochemical High Throughput Screening assay for agonists of the steroid receptor coactivator 2 (SRC-2) recruitment by the peroxisome proliferator-activated receptor gamma (PPAR gamma): non-selective agonists. [Related pubchem assays: 1297, 1032 ]; assay type: functional
# [23] = NIH-3T3 fibroblast cytotoxicity, dose response, cytotoxicity control, cell-based, fluorescence, Alamar Blue, secondary assay (AID 2327); assay type: functional;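 also: NIH-3T3 mouse fibroblasts cultured with fluconazole at 8 µg/mL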
# [24] = C. albicans growth with fluconazole, confirmation, fluorescence, retest (AID 2467); assay type: functional, cell-based
# [25] = target: T3, DNA repair protein RAD52 homolog (Homo sapiens, UniProt P43351); assay type: functional, biochemical
# T3 sequence (P43351 whole entry): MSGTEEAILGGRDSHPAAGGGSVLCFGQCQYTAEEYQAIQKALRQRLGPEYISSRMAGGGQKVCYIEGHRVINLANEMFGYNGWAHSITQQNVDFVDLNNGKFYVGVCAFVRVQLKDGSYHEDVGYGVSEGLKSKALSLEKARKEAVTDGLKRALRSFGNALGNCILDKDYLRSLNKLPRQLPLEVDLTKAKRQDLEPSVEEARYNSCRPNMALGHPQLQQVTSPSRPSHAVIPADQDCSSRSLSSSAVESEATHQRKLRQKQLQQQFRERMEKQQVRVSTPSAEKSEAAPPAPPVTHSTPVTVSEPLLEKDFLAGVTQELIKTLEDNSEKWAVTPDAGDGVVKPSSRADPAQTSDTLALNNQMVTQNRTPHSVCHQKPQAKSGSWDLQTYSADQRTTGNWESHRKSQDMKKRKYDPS
# Galanin receptor type 3 = target: T4, Galanin receptor type 3 (Homo sapiens, UniProt O60755); assay: Fluorescence-based cell-based primary high throughput dose response assay to identify antagonists of the Galanin Receptor 3 (GalR3).; assay type: functional
# T4 sequence (O60755 whole entry): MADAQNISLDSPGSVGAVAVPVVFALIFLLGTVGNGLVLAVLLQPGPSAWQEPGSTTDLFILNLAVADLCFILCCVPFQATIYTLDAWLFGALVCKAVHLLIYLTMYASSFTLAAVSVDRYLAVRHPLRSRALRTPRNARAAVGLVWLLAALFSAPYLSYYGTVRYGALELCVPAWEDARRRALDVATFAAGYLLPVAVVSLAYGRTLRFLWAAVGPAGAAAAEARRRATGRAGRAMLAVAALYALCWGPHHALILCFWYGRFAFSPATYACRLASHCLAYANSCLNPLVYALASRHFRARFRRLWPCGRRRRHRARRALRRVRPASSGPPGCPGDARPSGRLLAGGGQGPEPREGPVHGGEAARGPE
# cells [26] = assay type: functional, cell-based; conditions: HEK-CNG
# [27] = P. falciparum 3D7-ScDHODH growth inhibitors, dose response, SYBR Green, dry powder samples (AID 1159570); assay type: functional, cell-based;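 also: parasite growth measured after 72 hours of compound exposure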
# [28] = HepG2 cell cytotoxicity, dose response, cytotoxicity control, plate reader, dry powder samples (AID 1159569); assay type: functional, cell-based;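 also: inhibitor potency with signal falling toward the positive control level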
# [29] = P. falciparum Dd2 growth inhibitors, dose response, SYBR Green, cherry-picked samples (AID 1159567); assay type: functional, cell-based
# [30] = P. falciparum Dd2 growth inhibitors, dose response, SYBR Green, dry powder samples (AID 1159566); assay type: functional, cell-based;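 also: potency for growth inhibition with lower SYBR green DNA signal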
# [31] = P. falciparum ATP4 D1247Y mutant growth inhibitors, dose response, NITD609-resistant line, SYBR Green, dry powder (AID 1159571); assay type: functional, cell-based;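 also: parasites synchronized at ring stage by sorbitol before testing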
# [32] = HepG2 cell cytotoxicity, dose response, cytotoxicity control, cherry-picked samples (AID 1159577); assay type: functional, cell-based
# T1 sequence (P49327 whole entry, the tested form may be a part): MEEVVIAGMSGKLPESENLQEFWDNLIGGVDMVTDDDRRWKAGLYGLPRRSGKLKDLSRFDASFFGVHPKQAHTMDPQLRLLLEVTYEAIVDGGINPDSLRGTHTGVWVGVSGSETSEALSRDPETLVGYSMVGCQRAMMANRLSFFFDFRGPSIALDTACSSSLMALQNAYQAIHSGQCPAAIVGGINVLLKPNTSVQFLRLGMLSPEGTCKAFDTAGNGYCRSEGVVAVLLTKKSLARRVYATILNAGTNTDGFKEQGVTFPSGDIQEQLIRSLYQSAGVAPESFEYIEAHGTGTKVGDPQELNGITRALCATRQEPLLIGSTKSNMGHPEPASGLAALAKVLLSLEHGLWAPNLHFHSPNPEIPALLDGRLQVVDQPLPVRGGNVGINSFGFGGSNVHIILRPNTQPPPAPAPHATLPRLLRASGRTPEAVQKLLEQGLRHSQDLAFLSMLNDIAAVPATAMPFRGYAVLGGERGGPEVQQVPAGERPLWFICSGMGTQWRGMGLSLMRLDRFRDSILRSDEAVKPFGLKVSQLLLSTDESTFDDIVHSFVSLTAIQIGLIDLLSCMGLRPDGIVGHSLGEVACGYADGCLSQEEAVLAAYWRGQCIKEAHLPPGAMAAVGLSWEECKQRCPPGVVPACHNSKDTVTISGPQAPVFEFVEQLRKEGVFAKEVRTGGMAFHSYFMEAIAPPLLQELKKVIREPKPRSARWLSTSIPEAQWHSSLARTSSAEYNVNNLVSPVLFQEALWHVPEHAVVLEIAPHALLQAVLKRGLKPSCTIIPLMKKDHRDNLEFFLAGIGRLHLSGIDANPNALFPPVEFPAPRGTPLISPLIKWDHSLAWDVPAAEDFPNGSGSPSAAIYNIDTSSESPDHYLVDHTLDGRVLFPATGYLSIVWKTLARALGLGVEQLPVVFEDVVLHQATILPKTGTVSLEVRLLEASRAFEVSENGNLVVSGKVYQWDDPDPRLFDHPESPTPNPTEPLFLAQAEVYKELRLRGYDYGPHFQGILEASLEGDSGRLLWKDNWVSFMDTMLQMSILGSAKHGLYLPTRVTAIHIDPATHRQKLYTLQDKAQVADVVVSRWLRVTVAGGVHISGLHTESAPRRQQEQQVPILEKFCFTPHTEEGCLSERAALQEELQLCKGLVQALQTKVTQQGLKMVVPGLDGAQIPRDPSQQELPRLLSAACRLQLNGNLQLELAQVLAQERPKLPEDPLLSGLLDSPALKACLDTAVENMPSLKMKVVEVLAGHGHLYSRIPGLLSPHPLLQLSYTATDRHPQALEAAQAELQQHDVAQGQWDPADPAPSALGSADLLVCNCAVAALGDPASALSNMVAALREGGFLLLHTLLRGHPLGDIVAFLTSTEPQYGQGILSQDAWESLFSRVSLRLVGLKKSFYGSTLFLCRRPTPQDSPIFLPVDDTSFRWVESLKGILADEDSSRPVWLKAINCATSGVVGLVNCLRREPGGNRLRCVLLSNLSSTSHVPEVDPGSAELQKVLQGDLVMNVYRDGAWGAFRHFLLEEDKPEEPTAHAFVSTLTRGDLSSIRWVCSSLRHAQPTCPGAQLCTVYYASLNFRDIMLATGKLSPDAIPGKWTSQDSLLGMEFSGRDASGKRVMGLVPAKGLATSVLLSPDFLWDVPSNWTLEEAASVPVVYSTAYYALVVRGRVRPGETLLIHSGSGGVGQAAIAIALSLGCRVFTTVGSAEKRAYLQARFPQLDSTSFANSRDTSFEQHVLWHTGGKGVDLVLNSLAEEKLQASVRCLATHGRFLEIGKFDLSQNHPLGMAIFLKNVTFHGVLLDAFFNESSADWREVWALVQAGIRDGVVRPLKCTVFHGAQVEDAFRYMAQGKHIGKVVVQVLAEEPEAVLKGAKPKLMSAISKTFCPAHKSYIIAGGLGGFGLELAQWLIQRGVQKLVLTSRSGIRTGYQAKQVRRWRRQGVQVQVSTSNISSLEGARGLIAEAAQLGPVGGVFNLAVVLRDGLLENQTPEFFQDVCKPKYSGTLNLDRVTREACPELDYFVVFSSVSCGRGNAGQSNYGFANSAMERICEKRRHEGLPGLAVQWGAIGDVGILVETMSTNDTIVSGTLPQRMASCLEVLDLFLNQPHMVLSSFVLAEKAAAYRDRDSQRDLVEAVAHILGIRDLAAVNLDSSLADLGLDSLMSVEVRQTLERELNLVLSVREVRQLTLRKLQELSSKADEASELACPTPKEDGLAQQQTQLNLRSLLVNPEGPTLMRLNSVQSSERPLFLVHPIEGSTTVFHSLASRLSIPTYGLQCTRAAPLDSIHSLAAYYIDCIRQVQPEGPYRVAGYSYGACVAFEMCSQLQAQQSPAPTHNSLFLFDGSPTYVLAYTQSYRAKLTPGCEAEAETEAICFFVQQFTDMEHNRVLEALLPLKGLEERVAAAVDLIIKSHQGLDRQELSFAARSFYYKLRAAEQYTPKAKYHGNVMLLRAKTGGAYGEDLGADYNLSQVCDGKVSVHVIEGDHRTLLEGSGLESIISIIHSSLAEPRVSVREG
# Sequence of NAD-dependent protein deacylase sirtuin-5, mitochondrial (Q9NXA8 whole entry, the tested form may be a part): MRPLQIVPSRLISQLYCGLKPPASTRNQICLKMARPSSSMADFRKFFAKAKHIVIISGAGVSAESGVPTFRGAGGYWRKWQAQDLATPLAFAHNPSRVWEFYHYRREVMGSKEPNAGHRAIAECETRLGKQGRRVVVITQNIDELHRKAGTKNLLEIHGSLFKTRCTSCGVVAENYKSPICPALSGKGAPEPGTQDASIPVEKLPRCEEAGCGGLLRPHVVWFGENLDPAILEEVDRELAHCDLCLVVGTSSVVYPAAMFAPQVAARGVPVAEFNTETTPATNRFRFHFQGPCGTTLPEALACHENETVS
# Sequence of Disintegrin and metalloproteinase domain-containing protein 17 (P78536 whole entry, the tested form may be a part): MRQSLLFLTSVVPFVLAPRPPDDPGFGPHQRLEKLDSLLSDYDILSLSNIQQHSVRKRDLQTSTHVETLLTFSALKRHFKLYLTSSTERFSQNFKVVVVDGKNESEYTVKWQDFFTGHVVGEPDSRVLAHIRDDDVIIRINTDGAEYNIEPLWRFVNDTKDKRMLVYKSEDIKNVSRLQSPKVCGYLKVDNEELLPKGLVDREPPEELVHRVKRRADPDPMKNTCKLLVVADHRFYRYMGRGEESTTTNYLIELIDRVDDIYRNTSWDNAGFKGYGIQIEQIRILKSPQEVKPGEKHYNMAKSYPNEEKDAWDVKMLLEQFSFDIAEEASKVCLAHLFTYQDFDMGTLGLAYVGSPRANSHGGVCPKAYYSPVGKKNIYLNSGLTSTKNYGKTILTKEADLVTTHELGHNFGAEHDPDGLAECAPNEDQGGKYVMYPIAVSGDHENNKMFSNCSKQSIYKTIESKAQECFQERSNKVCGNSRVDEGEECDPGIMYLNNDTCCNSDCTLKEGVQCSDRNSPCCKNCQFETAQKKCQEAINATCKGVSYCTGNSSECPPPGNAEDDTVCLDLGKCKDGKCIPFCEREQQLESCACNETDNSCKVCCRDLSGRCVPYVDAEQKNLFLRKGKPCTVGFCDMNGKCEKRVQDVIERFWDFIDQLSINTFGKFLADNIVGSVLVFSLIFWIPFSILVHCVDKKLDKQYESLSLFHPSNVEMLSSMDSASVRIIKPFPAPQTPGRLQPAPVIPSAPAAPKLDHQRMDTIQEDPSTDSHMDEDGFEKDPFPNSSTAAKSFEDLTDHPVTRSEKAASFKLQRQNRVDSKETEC
# Sequence of Mitogen-activated protein kinase 10 (P53779 whole entry): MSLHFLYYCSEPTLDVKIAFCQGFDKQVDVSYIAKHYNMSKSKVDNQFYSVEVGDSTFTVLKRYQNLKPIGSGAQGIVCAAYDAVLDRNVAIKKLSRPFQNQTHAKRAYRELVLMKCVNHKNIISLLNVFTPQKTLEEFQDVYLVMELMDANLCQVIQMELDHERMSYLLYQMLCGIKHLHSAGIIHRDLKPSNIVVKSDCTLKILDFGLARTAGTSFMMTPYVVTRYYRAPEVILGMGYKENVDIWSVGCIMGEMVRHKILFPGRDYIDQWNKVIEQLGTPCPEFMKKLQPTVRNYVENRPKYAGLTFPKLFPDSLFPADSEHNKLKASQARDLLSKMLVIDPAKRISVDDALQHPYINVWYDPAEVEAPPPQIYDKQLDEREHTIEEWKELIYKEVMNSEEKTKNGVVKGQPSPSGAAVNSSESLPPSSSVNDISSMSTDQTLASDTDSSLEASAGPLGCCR
structure (smiles),measurement,setting,value
COc1cccc(N(C(=O)c2nc3nccc(C)n3n2)c2nc3ccccc3s2)c1,EC50,[1],0.248 µM (active)
same,EC50,[2],0.122 µM (active)
same,EC50,[3],0.192 µM (active)
same,EC50,H4,0.166 µM (active)
same,EC50,[4],0.338 µM (active)
same,EC50,[5],0.464 µM (active)
same,AC50,HeLa,43.5 µM (active)
O=C(NCCCCc1ccccc1)c1cc([N+](=O)[O-])cc([N+](=O)[O-])c1,EC50,[6],< 0.1 µM (active)
same,EC50,[7],> 60 µM (not active)
same,IC50,Fatty acid synthase [8],12.4 µM (active)
same,IC50,Fatty acid synthase [9],8 µM (active)
same,EC50,cells [10],0.258 µM (active)
CCCc1cc(O)n2c(n1)nc1ccccc12,IC50,[11],35 µM (not active)
Cn1nc([N+](=O)[O-])nc1Sc1cccc2cccnc12,EC50,[6],< 0.1 µM (active)
same,EC50,[7],> 60 µM (not active)
same,AC50,INS1,2.59 µM (active)
same,EC50,cells [10],0.115 µM (active)
COc1cccc(CN(C)C(=O)c2ccc(OCC(=O)Nc3cccc(C(F)(F)F)c3)c(OC)c2)c1,IC50,[12],> 80 µM (inactive)
same,AC50,[13],4.93 µM (active)
same,AC50,[14],3.38 µM (active)
same,AC50,[15],14.4 µM (active)
same,IC50,[16],4.57 µM (active)
COc1ccc2c(COC(=O)c3[nH]nc4ccccc34)cc(=O)oc2c1,EC50,[1],0.752 µM (active)
same,EC50,[3],< 0.1 µM (inconclusive)
same,EC50,H4,0.409 µM (active)
same,EC50,[4],0.684 µM (active)
same,EC50,[5],0.352 µM (active)
CN(C)C(=O)c1cc(C(=O)c2ccc(C(F)(F)F)cc2F)c[nH]1,AC50,[17],> 30 µM (inactive)
Cc1cccc(C2(c3cccc(C)c3)OC(=O)c3ccccc32)c1,AC50,INS1,17.7 µM (active)
same,IC50,[18],> 69.5 µM (inactive)
same,IC50,[19],> 23.2 µM (inactive)
Cc1ccc(S(=O)(=O)N2CCCCC2)cc1NC(=O)CNc1ccc(C(F)(F)F)cc1,IC50,[18],> 69.5 µM (inactive)
same,IC50,[19],8.89 µM (active)
Cc1cn(S(=O)(=O)c2ccc(Br)c3ccccc23)cn1,EC50,[20],> 79.4 µM (inactive)
same,EC50,[21],> 79.4 µM (not active)
same,EC50,[22],> 79.4 µM (not active)
same,IC50,[11],15.5 µM (not active)
CC1=CC(=Cc2sc3ccccc3[n+]2C)C=C(C)O1.[O-][Cl+3]([O-])([O-])[O-],EC50,[23],> 160 µM (inactive)
same,EC50,[24],0.491 µM (active)
same,EC50,[6],< 0.1 µM (active)
same,EC50,[7],32.3 µM (active)
same,AC50,[25],5.78 µM (active)
same,IC50,[16],8.76 µM (active)
same,EC50,cells [10],0.009 µM (active)
Cc1cc(S(=O)(=O)Nc2ccc(C(=O)NCC3(N4CCCCC4)CCCCC3)cc2)ccc1F,AC50,[17],> 30 µM (inactive)
Cc1cc(C)c(CN2CCN(C(=O)Cn3cnc4c(OCc5ccccc5)ncnc43)CC2)c(C)c1,IC50,[12],> 80 µM (inactive)
same,AC50,INS1,3.51 µM (active)
same,IC50,Galanin receptor type 3,2.86 µM (active)
same,EC50,cells [26],> 29.9 µM (inactive)
same,IC50,[16],5.99 µM (active)
CCC(=O)N1CC2(CCN(C(=O)Nc3ccccc3F)CC2)c2c([nH]c3cc(OC)ccc23)[C@H]1CO,AC50,[27],1.2 µM (active)
same,AC50,[28],50.4 µM (active)
same,AC50,[29],1.24 µM (active)
same,AC50,[30],1.1 µM (active)
same,AC50,[31],0.934 µM (active)
C[C@H]1CN([C@@H](C)CO)C(=O)c2cc(C#CCc3ccccc3)cnc2O[C@@H]1CN(C)CC1CCCC1,AC50,[29],4.29 µM (active)
same,AC50,[32],11.2 µM (active)
COc1ccccc1C#Cc1ccc([C@H]2[C@@H](C#N)N(C(=O)C3CCCC3)[C@@H]2CO)cc1,AC50,[29],5.1 µM (active)
same,AC50,[32],> 39 µM (inactive)
CCC(=O)N1[C@H](CO)[C@H](c2ccc(C3=CCCC3)cc2)[C@H]1CNCC1CCCC1,AC50,[29],3.77 µM (active)
same,AC50,[32],> 39 µM (inactive)
COc1ccc(NC(=O)Nc2cccc3c2O[C@H](CN(C)C(=O)Nc2cccc4ccccc24)[C@H](C)CN([C@@H](C)CO)C3=O)cc1,AC50,[27],1.64 µM (active)
same,AC50,[28],> 100 µM (inactive)
same,AC50,[29],2.54 µM (active)
same,AC50,[30],0.547 µM (active)
same,AC50,[31],0.971 µM (active)
